Results from patent publication US20230365563A1, “QUINAZOLINE COMPOUND AND APPLICATION THEREOF” (SHANGHAI PHARMACEUTICALS HOLDING CO., LTD., priority 2020, published 2023).
pIC50: −log10 of the molar value. Where a name gives a salt, the structure may show the parent alone.

Key:
KRAS_G12D and cRAF = target: T1, KRAS_G12D and cRAF (Homo sapiens, UniProt P01116, G12D); assay: Inhibition of KRAS_G12D/cRAF binding (Cisbio binding kit, 665/615 ratio), Effect Embodiment B; conditions: read-out: GTP-KRAS-G12D:CRAF IC50
T1 construct: purchased
T1 sequence (P01116 1-188 isoform P01116-2 G12D): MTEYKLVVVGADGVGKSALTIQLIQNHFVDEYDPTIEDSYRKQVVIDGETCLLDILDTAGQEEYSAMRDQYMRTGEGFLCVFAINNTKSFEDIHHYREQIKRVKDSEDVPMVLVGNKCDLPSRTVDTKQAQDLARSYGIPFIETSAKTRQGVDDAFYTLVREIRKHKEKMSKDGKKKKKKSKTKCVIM
Protocol: (§1) Similarly, the first dilution point of the compound to be tested was its storage solution, and the solution was 3-fold diluted, with 11+0 points of dilution. Echo was used to transfer 0.2 μL gradient diluted solution of the compounds into a 384-well plate, with 2 duplicated wells for each compound, and the final concentration of DMSO was 1%. The solution was centrifuged for 1 min at 1000 rpm/min.
(§2) IC50 of the compounds was fitted by Graphpad Prism 8 nonlinear regression equation: […]
(§3) The IC50 (half inhibitory concentration) of the compound was obtained by using the following nonlinear fitting formula: […]

KRAS_WT and SOS1 = target: T2, KRAS_WT and SOS1 (Homo sapiens, UniProt P01116); assay: Inhibition of KRAS_WT/SOS1 binding (Cisbio binding kit, 665/615 ratio), Effect Embodiment C; conditions: read-out: GTP-KRAS-WT:SOS1 IC50
T2 construct: purchased
T2 sequence (P01116 1-188 isoform P01116-2): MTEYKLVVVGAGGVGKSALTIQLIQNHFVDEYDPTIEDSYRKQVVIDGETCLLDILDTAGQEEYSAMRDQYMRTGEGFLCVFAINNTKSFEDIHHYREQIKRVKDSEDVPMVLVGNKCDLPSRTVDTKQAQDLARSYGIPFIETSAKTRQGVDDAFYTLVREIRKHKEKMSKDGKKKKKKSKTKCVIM
Protocol: The inhibitory ability of small molecule compounds on the binding activity of KRAS_WT and SOS1 was examined by a drug screening system based on the combination of KRAS_WT and SOS1.
as §1, §2, §3

KRAS-G12D and SOS1 = target: T3, KRAS-G12D and SOS1 (Homo sapiens, UniProt P01116, G12D); assay: Inhibition of KRAS-G12D/SOS1 binding (Cisbio binding kit, 665/615 ratio), Effect Embodiment A; conditions: read-out: GTP-KRAS-G12D:SOS1 IC50
T3 construct: purchased
T3 sequence (P01116 1-188 isoform P01116-2 G12D): as the sequence (P01116 1-188 isoform P01116-2 G12D) above
How it was run: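 Duplicate wells received an eleven-point, threefold compound titration whose top point was the stock solution; final DMSO 1%.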

| pIC50 (KRAS_G12D and cRAF) | pIC50 (KRAS_WT and SOS1) | pIC50 (KRAS-G12D and SOS1) | Structure (SMILES) |
| --- | --- | --- | --- |
| 6.66 | 5.43 | 7.43 | C[C@H]1CN(CCCOc2nc(N3CC4CCC(C3)N4)c3cc(Cl)c(-c4cc(O)cc5ccccc45)c(F)c3n2)CCO1 (single isomer, unassigned) [Compound 246, 4-((S or R)-4-((1R,5S)-3,8-diazacyclo[3.2.1]octan-3-yl)-6-chloro-8-fluoro-2-(3-((S)-2-methylmorpholinyl)propoxy)quinazolin-7-yl)naphthalen-2-ol formate] |
| 7.22 | 6.08 | 7.75 | Oc1cc(Cl)c(C2CC2)c(-c2c(Cl)cc3c(N4C[C@H]5CC[C@@H](C4)N5)nc(OCCCN4C5CCC4COC5)nc3c2F)c1 (single isomer, unassigned) [Compound 197a, 3-((7R or 7S)-2-(3-(3-oxa-8-azabicyclo[3.2.1]octan-8-yl)propoxy)-4-((1R,5S)-3,8-diazabicyclo[3.2.1]octan-3-yl)-6-chloro-8-fluoroquinazolin-7-yl)-5-chloro-4-cyclopropylphenol formate] |
| 6.81 | 5.51 | 7.36 | Oc1cc(-c2c(Cl)cc3c(N4CC5CCC(C4)N5)nc(OCCN4C5CC6CC4CC(C5)O6)nc3c2F)c2ccccc2c1 (single isomer, unassigned) [Compound 238, (S or R)-4-(2-(2-((1R,3R,5R,7R)-2-oxa-6-azadamantan-6-yl)ethoxy)-4-((1R,5S)-3,8-diazabicyclo[3.2.1]octan-3-yl)-6-chloro-8-fluoroquinazolin-7-yl)naphthalen-2-ol formate] |
| 7.85 | 6.63 | 7.77 | CCc1c(F)ccc2cccc(-c3c(F)cc4c(N5CC6CCC(C5)N6)nc(OC[C@@]56CCCN5C[C@H](F)C6)nc4c3F)c12 (single isomer, unassigned) [Compound 280a, 4-((1R,5S)-3,8-diazacyclo[3.2.1]octan-3-yl)-7-((S or R)-8-ethyl-7-fluoronaphthalen-1-yl)-6,8-difluoro-2-((2R,7aS)-2-fluorotetrahydro-1H-pyrrolidin-7a(5H)-yl)methoxy)quinazoline dihydrochloride] |
| 6.87 | 5.80 | 7.75 | Oc1cc(-c2c(Cl)cc3c(N4CC5CCC(C4)N5)nc(OCCCN4CCCC4)nc3c2F)c2ccccc2c1 (single isomer, unassigned) [Compound 63a, 4-((S or R)-4-((1R,5S)-3,8-diazabicyclo[3.2.1]octan-3-yl)-6-chloro-8-fluoro-2-(3-(pyrrolidin-1-yl)propoxy)quinazolin-7-yl)naphthalen-2-ol] |
| 7.72 | 6.12 | 7.80 | CCc1cccc2cc(O)cc(-c3c(F)cc4c(N5CC6CCC(C5)N6)nc(OCCCN5C[C@@H](C)O[C@@H](C)C5)nc4c3F)c12 (single isomer, unassigned) [Compound 283a, (S or R)-4-(4-((1R,5S)-3,8-diazacyclo[3.2.1]octan-3-yl)-2-(3-((2S,6R)-2,6-dimethylmorpholinylpropoxy)-6,8-difluoroquinazolin-7-yl)-5-ethylnaphthalen-2-oldihydrochloride] |
| 5.79 | 5.03 | 6.05 | CN(C)C1CN(c2nc(N3CCNCC34CC4)c3cc(Cl)c(-c4cc(O)cc5ccccc45)c(F)c3n2)C1 (single isomer, unassigned) [Compound 19a, (R or S)-4-(6-chloro-2-(3-(dimethylamino)azetidin-1-yl)-8-fluoro-4-(4,7-diazaspiro[2.5]octan-4-yl)quinazolin-7-yl)naphthalen-2-ol] |
| 7.69 | 6.25 | 7.75 | CCc1cccc2cccc(-c3c(F)cc4c(N5CC6CCC(C5)N6)nc(OC[C@@]56CCCN5C[C@H](F)C6)nc4c3F)c12 (single isomer, unassigned) [Compound 281a, (S or R)-4-((1R,5S)-3,8-diazacyclo[3.2.1]octan-3-yl)-7-(8-ethylnaphthalen-1-yl)-6,8-difluoro-2-((2R,7aS)-2-fluorotetrahydro-1H-pyrrolin-7a(5H)-yl)methoxy)quinazoline dihydrochloride] |
| 6.82 | 5.98 | 7.40 | CC(COc1nc(N2CC3CCC(C2)N3)c2cc(Cl)c(-c3cc(O)cc4ccccc34)c(F)c2n1)CN1C2CCC1COC2 (single isomer, unassigned) [Compound 178b, 4-((7R or 7S)-2-((2S or 2R)-3-(3-oxa-8-azabicyclo[3.2.1]octan-8-yl)-2-methylpropoxy)-4-((1R,5S)-3,8-diazabicyclo[3.2.1]octan-3-yl)-6-chloro-8-fluoroquinazolin-7-yl)naphthalen-2-ol dicarboxylate] |
| 6.36 | 6.57 | 7.07 | CN(C)C1CN(c2nc(N3CC4CCC(C3)N4)c3cc(Cl)c(-c4cc(O)cc5cccc(Cl)c45)c(F)c3n2)C1 (single isomer, unassigned) [Compound 65b, 4-((R or S)-4-((1R,5S)-3,8-diazabicyclo[3.2.1]octan-3-yl)-6-chloro-2-(3-(dimethylamino)azetidin-1-yl)-8-fluoroquinazolin-7-yl)-5-chloronaphthalen-2-ol] |
| 6.94 | 5.78 | 7.56 | Oc1cc(-c2c(Cl)cc3c(N4CC5CCC(C4)N5)nc(OCCCN4CC5CCC4CO5)nc3c2F)c2ccccc2c1 (single isomer, unassigned) [Compound 187b, (R or S)-4-(2-(3-((1R,4R or 1S,4S)-2-oxa-5-azabicyclo[2.2.2]octan-5-yl)propoxy)-4-((1R,5S)-3,8-diazabicyclo[3.2.1]octan-3-yl)-6-chloro-8-fluoroquinazolin-7-yl)naphthalen-2-ol diformate] |
| 6.84 | 5.85 | 7.51 | CCCN(C)CCCOc1nc(N2CC3CCC(C2)N3)c2cc(Cl)c(-c3cc(O)cc4ccccc34)c(F)c2n1 (single isomer, unassigned) [Compound 51a, 4-((S or R)-4-((1R,5S)-3,8-diazabicyclo[3.2.1]octan-3-yl)-6-chloro-8-fluoro-2-(3-(methyl(propyl)amino)propoxy)quinazolin-7-yl)naphthalen-2-ol carboxylate] |
| 6.80 | 5.46 | 7.33 | Oc1cc(-c2c(Cl)cc3c(N4CC5CCC(C4)N5)nc(OCC(F)(F)CN4CCCC4)nc3c2F)c2ccccc2c1 (single isomer, unassigned) [Compound 107, 4-((S or R)-4-((1R,5S)-3,8-diazabicyclo[3.2.1]octan-3-yl)-6-chloro-2-(2,2-difluoro-3-(pyrrolidin-1-yl)propoxy)-8-fluoroquinazolin-7-yl)naphthalen-2-ol dihydrochloride] |
| 7.63 | 6.14 | 7.86 | C[C@@H](COc1nc(N2CC3CCC(C2)N3)c2cc(Cl)c(-c3cc(O)cc4ccccc34)c(F)c2n1)CN1CCO[C@H](C)C1 (single isomer, unassigned) [Compound 242, 4-((S or R)-4-((1R,5S)-3,8-diazacyclo[3.2.1]octan-3-yl)-6-chloro-8-fluoro-2-((R)-2-methyl-3-((R)-2-methylmorpholinyl)propoxy)quinazolin-7-yl)naphthalen-2-ol formate] |
| 7.32 | 6.38 | 7.66 | Oc1cc(-c2c(Cl)cc3c(N4CC5CCC(C4)N5)nc(OCCCN4C5CCC4COC5)nc3c2F)c2cc(F)ccc2c1 (single isomer, unassigned) [compound 252] |
